Test results taken from paper PMC2662379 (Biochemistry, 2008).

Assays:
[1] = biological target: NPP (Xanthomonas axonopodis nucleotide phosphodiesterase/pyrophosphatase) (Xanthomonas citri, UniProt A0A0U5FM15); assay: inhibition of MepNPP hydrolysis, absorbance of 4-nitrophenolate at […] nm; assay type: biochemical
[2] = biological target: alkaline phosphatase (AP) (Escherichia coli, UniProt P00634, R188S); assay: steady-state hydrolysis kinetics; assay type: biochemical
alkaline phosphatase (AP), sequence (P00634 23-471 R188S): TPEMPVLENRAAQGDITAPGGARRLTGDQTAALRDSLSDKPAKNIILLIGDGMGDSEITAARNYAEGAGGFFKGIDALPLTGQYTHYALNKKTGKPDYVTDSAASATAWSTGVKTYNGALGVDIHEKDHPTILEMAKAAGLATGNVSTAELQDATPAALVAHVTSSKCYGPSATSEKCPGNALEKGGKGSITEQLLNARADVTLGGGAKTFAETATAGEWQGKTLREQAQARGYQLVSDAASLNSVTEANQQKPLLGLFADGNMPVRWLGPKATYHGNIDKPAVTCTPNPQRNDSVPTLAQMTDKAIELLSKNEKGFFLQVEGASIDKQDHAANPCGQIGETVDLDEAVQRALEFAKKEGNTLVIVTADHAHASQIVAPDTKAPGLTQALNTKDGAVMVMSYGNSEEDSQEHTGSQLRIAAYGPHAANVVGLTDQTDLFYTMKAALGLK

Row | SMILES | Ki [1] | kcat/KM [2]
1 | Nc1ncnc2c1ncn2[C@@H]1O[C@H](COP(=O)(O)O)[C@@H](O)[C@H]1O [AMP, adenosine monophosphate] | 318 ± 24 µM | –
2 | COP(O)(=S)Oc1ccc([N+](=O)[O-])cc1 (racemic) [MepNPPS, methyl p-nitrophenyl phosphorothioate] | – | 0.0011 M⁻¹ s⁻¹
